Experimental data published in patent publication US9096646B2, “CXCR4 receptor compounds” (priority 2008, dated 2015).
Values joined by “and” are separate entries in the source; they are usually repeats but may differ in a detail not shown here. Identical values can stand only once. Like-named read-outs stand apart in the source and are kept apart here. One block for each compound: values may come before it. Square brackets hold non-standard residues; d marks the D form. Ends that are not written are not given here. Peptide text beside a SMILES is read from it. * marks the point of attachment. ξ: configuration not given here. ξGly(nC16H33) = CCCCCCCCCCCCCCCCC(N)C(=O)O; Palmitoyl = CCCCCCCCCCCCCCCC(=O)*; Myristoyl = CCCCCCCCCCCCCC(=O)*

Biological target: CXCR4 (Homo sapiens, UniProt P61073)
Assay: Chemotaxis assay, effect on SDF1-a (CXCL12) induced migration of CCRF-CEM cells
Type: cell-based
Parameters: a human T-cell ALL line that endogenously expresses CXCR4; endogenous in cells; host or cells: CCRF-CEM (human T-cell ALL line)
Conditions: CEM cells; for activity at 1 µM / activity at 0.01 µM / activity at 0.03 µM / activity at 0.1 µM / activity at 0.3 µM / activity at 3 µM: CCRF-CEM; for Peak Ratio: peak test compound/peak control
[1] = Table 20, i3 loop, conc 0.01 uM
[2] = Table 20, i3 loop, conc 0.03 uM
[3] = Table 20, i3 loop, conc 1.0 uM, read-out: AUC (% of vehicle)
[4] = Table 20, i3 loop, conc 1.0 uM, read-out: Max (% of vehicle)
[5] = Table 18, i1 loop, drug conc 1.0 uM

CXCR4, sequence (P61073 whole entry): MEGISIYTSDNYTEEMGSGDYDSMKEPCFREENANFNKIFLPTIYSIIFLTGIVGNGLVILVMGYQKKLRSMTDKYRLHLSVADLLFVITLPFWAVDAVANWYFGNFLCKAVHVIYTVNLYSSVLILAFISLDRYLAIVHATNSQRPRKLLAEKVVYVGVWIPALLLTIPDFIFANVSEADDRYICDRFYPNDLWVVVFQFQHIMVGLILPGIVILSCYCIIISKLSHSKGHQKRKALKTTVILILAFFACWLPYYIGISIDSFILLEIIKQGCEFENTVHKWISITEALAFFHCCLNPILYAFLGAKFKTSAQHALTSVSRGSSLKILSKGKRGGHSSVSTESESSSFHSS
Excerpt: Chemotaxis assays were utilized to determine the effect of compound on the directed migration of cells in response to chemokine. Cells that express a receptor of interest were placed in the upper chamber of a Transwell chemotaxis plate (Corning) and allowed to migrate through a polycarbonate membrane to a lower chamber containing the appropriate receptor-specific ligand. To test for antagonist or potentiating activity, cells were mixed with the desired concentration of compound prior to addition to the upper chamber. Conversely, agonist activity was determined by adding compound in the bottom chamber only without endogenous chemokine. The effect of compound is quantified by several parameters, including the extent of maximum response, the shift of agonist dose-response curves, and the area under the curve.
To measure the CXCR4-dependent migration of cells, the appropriate concentration of CXCL12 (SDF1a) or test compound was diluted in phenol red-free RMPI-1640/20 mM HEPES/0.5% BSA buffer and placed in the bottom chamber of a transwell apparatus. CCRF-CEM cells, a human T-cell ALL line that endogenously expresses CXCR4, were washed twice in buffer and resuspended at 133,000 cells/ml. A 75 μl sample of this suspension is mixed with the test compound of interest and placed in the upper chamber of a 5-micron transwell apparatus.
To initiate cell migration, the assembled transwell plate was placed in a 37° C., 0.5% CO2 incubator for a specified time interval, typically between 30 and 120 minutes. After incubation, the unit was disassembled and the lower chamber placed at −80° C. overnight to facilitate lysis of cells. To quantify migrated cells, plates were thawed at 37° C. in a humidified chamber, and then a sample volume was removed from each well and mixed with an equal volume of CyQuant (Invitrogen) working solution in opaque plates. The fluorescence intensity of each well represents the DNA content and is directly proportional to cell number. […] The plate background control, which included no cells in the upper chamber, was subtracted from all values.

AUC (% of vehicle) [1]: 171.8 % of vehicle
Max (% of vehicle) [1]: 156.08 % of vehicle
Peak Test Compound [1]: 0.16 nM
AUC (% of vehicle) [2]: 217.53 % of vehicle
Max (% of vehicle) [2]: 202.16 % of vehicle
Peak Test Compound [2]: 0.16 nM
AUC (% of vehicle) (Table 20, i3 loop, conc 0.1 uM): 175.95 % of vehicle
Max (% of vehicle) (Table 20, i3 loop, conc 0.1 uM): 157.79 % of vehicle
Peak Test Compound (Table 20, i3 loop, conc 0.1 uM): 0.03 nM
AUC (% of vehicle) (Table 20, i3 loop, conc 0.3 uM): 129.83 % of vehicle
Max (% of vehicle) (Table 20, i3 loop, conc 0.3 uM): 113.68 % of vehicle
Peak Test Compound (Table 20, i3 loop, conc 0.3 uM): 0.16 nM
Peak Test Compound (Table 20, i3 loop, conc 1.0 uM): 0.16 nM
AUC (% of vehicle) (Table 20, i3 loop, conc 3.0 uM): 152.75 % of vehicle
Max (% of vehicle) (Table 20, i3 loop, conc 3.0 uM): 114.49 % of vehicle
Peak Test Compound (Table 20, i3 loop, conc 3.0 uM): 0.16 nM
Compound: Pal-KLSHSKGHQKRKALKTTV-amide (Palmitoyl-KLSHSKGHQKRKALKTTV-NH2; SMILES CCCCCCCCCCCCCCCC(=O)N[C@@H](CCCCN)C(=O)N[C@@H](CC(C)C)C(=O)N[C@@H](CO)C(=O)N[C@@H](Cc1c[nH]cn1)C(=O)N[C@@H](CO)C(=O)N[C@@H](CCCCN)C(=O)NCC(=O)N[C@@H](Cc1c[nH]cn1)C(=O)N[C@@H](CCC(N)=O)C(=O)N[C@@H](CCCCN)C(=O)N[C@@H](CCCNC(=N)N)C(=O)N[C@@H](CCCCN)C(=O)N[C@@H](C)C(=O)N[C@@H](CC(C)C)C(=O)N[C@@H](CCCCN)C(=O)N[C@H](C(=O)N[C@H](C(=O)N[C@H](C(N)=O)C(C)C)[C@@H](C)O)[C@@H](C)O) [Compound 90]
Max (% of vehicle) (Table 20, i3 loop, conc 1.0 uM): 131.59 % of vehicle and 76.8 % of vehicle

activity at 1 µM [3]: 77.5%
activity at 1 µM [4]: 92.1%
Peak Test Compound (Table 20, i3 loop, conc 1.0 uM): 1 nM
Peak Ratio (Table 20, i3 loop, conc 1.0 uM): 1
Compound: CCCCCCCCCCCCCCCC(=O)N[C@@H](CC(C)C)C(=O)N[C@@H](CO)C(=O)N[C@@H](Cc1cnc[nH]1)C(=O)N[C@@H](CO)C(=O)N[C@@H](CCCCN)C(=O)NCC(=O)N[C@@H](Cc1cnc[nH]1)C(=O)N[C@@H](CCC(N)=O)C(=O)N[C@@H](CCCCN)C(=O)N[C@@H](CCCNC(=N)N)C(=O)N[C@@H](CCCCN)C(=O)N[C@@H](C)C(=O)N[C@@H](CC(C)C)C(=O)N[C@@H](CCCCN)C(N)=O [Compound 95] (Palmitoyl-LSHSKGHQKRKALK-NH2)

AUC (% of vehicle) (Table 21, i4 loop, conc 1.0 uM): 65.28 % of Vehicle
Max (% of vehicle) (Table 21, i4 loop, conc 1.0 uM): 80.48 % of Vehicle
Compound: 116: CXCR4 i4 domain compound (GAKFKTSAQHALTSVR) [Compound 116]

activity at 1 µM (Table 18, i1 loop, drug conc 1.0 uM, read-out: AUC (% of)): 53%
activity at 1 µM (Table 18, i1 loop, drug conc 1.0 uM, read-out: Max (% of)): 53.5%
Compound: CCCCCCCCCCCCCCCCC(NC(=O)CCCCCCCCCCCCC)C(=O)N[C@@H](CCSC)C(=O)NCC(=O)N[C@@H](Cc1ccc(O)cc1)C(=O)N[C@@H](CCC(N)=O)C(=O)N[C@@H](CCCCN)C(=O)N[C@@H](CCCCN)C(=O)N[C@@H](CC(C)C)C(=O)N[C@@H](CCCNC(=N)N)C(=O)N[C@@H](CO)C(=O)N[C@@H](CCSC)C(=O)N[C@H](C(=O)N[C@@H](CC(=O)O)C(=O)N[C@@H](CCCCN)C(=O)N[C@@H](Cc1ccc(O)cc1)C(=O)N[C@@H](CCCNC(=N)N)C(=O)N[C@H](C(N)=O)[C@@H](C)CC)[C@@H](C)O (stereo partly drawn) [Compound 48] (Myristoyl-[ξGly(nC16H33)]MGYQKKLRSMTDKYRI-NH2)

AUC (% of vehicle) (Table 21, i4 loop, conc 1.0 uM): 77.47 % of Vehicle
Max (% of vehicle) (Table 21, i4 loop, conc 1.0 uM): 92.11 % of Vehicle
Compound: 115: CXCR4 i4 domain compound (GAKFKTSAQHALTSVSRGSSLK) [Compound 115]

AUC (% of vehicle) (Table 20, i3 loop, conc 1.0 uM): 37.55 % of vehicle
Max (% of vehicle) (Table 20, i3 loop, conc 1.0 uM): 59.71 % of vehicle
Compound: 89: CXCR4 i3 loop compound (KLSHSKGHQKRKALKTTVIL) [Compound 89]

AUC (% of vehicle) (Table 21, i4 loop, conc 1.0 uM): 49.31 % of Vehicle
Max (% of vehicle) (Table 21, i4 loop, conc 1.0 uM): 49.84 % of Vehicle
Peak Test Comp. (Table 21, i4 loop, conc 1.0 uM): 0.2 nM
Compound: 109: CXCR4 i4 domain compound (GAKFKTSAQHALTSVSRGSSLKILSKGKRGGHSSVST) [Compound 109]

activity at 1 µM [3]: 48.9%
activity at 1 µM [4]: 54.7%
Peak Test Compound (Table 20, i3 loop, conc 1.0 uM): 1 nM
Peak Ratio (Table 20, i3 loop, conc 1.0 uM): 0.2
Compound: CCCCCCCCCCCCCCCC(=O)N[C@@H](Cc1cnc[nH]1)C(=O)N[C@@H](CO)C(=O)N[C@@H](CCCCN)C(=O)NCC(=O)N[C@@H](Cc1cnc[nH]1)C(=O)N[C@@H](CCC(N)=O)C(=O)N[C@@H](CCCCN)C(=O)N[C@@H](CCCNC(=N)N)C(=O)N[C@@H](CCCCN)C(=O)N[C@@H](C)C(=O)N[C@@H](CC(C)C)C(=O)N[C@@H](CCCCN)C(=O)N[C@H](C(N)=O)[C@@H](C)O [Compound 97] (Palmitoyl-HSKGHQKRKALKT-NH2)

activity at 0.01 µM (Table 20, i3 loop, conc 0.01 uM, read-out: AUC (% of vehicle)): 158%
activity at 0.01 µM (Table 20, i3 loop, conc 0.01 uM, read-out: Max (% of vehicle)): 156%
activity at 0.03 µM (Table 20, i3 loop, conc 0.03 uM, read-out: AUC (% of vehicle)): 200%
activity at 0.03 µM (Table 20, i3 loop, conc 0.03 uM, read-out: Max (% of vehicle)): 198%
activity at 0.1 µM (Table 20, i3 loop, conc 0.1 uM, read-out: AUC (% of vehicle)): 174%
activity at 0.1 µM (Table 20, i3 loop, conc 0.1 uM, read-out: Max (% of vehicle)): 169%
activity at 0.3 µM (Table 20, i3 loop, conc 0.3 uM, read-out: AUC (% of vehicle)): 180%
activity at 0.3 µM (Table 20, i3 loop, conc 0.3 uM, read-out: Max (% of vehicle)): 165%
activity at 3 µM (Table 20, i3 loop, conc 3.0 uM, read-out: AUC (% of vehicle)): 184%
activity at 3 µM (Table 20, i3 loop, conc 3.0 uM, read-out: Max (% of vehicle)): 176%
Peak Test Compound [1]: 0.16 nM
Peak Ratio [1]: 0.2
Peak Test Compound [2]: 0.16 nM
Peak Ratio [2]: 0.2
Peak Test Compound (Table 20, i3 loop, conc 0.1 uM): 0.16 nM
Peak Ratio (Table 20, i3 loop, conc 0.1 uM): 0.2
Peak Test Compound (Table 20, i3 loop, conc 0.3 uM): 0.16 nM
Peak Ratio (Table 20, i3 loop, conc 0.3 uM): 0.2
Peak Test Compound (Table 20, i3 loop, conc 1.0 uM): 0.2 nM and 0.16 nM
Peak Ratio (Table 20, i3 loop, conc 1.0 uM): 0.2
Peak Test Compound (Table 20, i3 loop, conc 3.0 uM): 0.8 nM
Peak Ratio (Table 20, i3 loop, conc 3.0 uM): 1
Compound: CCCCCCCCCCCCCCCC(=O)N[C@@H](CCCCN)C(=O)N[C@@H](CC(C)C)C(=O)N[C@@H](CO)C(=O)N[C@@H](Cc1cnc[nH]1)C(=O)N[C@@H](CO)C(=O)N[C@@H](CCCCN)C(=O)NCC(=O)N[C@@H](Cc1cnc[nH]1)C(=O)N[C@@H](CCC(N)=O)C(=O)N[C@@H](CCCCN)C(=O)N[C@@H](CCCNC(=N)N)C(=O)N[C@@H](CCCCN)C(=O)N[C@@H](C)C(=O)N[C@@H](CC(C)C)C(=O)N[C@@H](CCCCN)C(N)=O [Compound 92] (Palmitoyl-KLSHSKGHQKRKALK-NH2)

Compound: 53 (MGYQKKLRSMTDKYRLHL; not fully specified) [Compound 53]
AUC (% of) [5]: 60.98 % of and 91.1 % of
Max (% of) [5]: 68.45 % of and 89.56 % of
